Laboratory results from EP4759807A1, “PROTEOLYSIS TARGETING CHIMERA COMPOUND FOR DEGRADING IRAK4 AND USE THEREOF” (Shenzhen Zhongge Biological Technology Co., Ltd., priority 2023, dated 2025).
Where a name gives a salt, the structure may show the parent alone.

How the values were obtained:
IRAK4 [1] = target: T1, IRAK4 (Homo sapiens, UniProt Q9NWZ3); assay: Hibit fluorescence detection of proteolysis (IRAK4-HiBiT in HEK293T cells); type: cell-based; design: host or cells: HEK293T (ATCC); conditions: for Dmax: HEK-293T; for DC50: IRAK4-HiBiT, HEK293T cells, 24 h
T1 sequence (Q9NWZ3 1-460): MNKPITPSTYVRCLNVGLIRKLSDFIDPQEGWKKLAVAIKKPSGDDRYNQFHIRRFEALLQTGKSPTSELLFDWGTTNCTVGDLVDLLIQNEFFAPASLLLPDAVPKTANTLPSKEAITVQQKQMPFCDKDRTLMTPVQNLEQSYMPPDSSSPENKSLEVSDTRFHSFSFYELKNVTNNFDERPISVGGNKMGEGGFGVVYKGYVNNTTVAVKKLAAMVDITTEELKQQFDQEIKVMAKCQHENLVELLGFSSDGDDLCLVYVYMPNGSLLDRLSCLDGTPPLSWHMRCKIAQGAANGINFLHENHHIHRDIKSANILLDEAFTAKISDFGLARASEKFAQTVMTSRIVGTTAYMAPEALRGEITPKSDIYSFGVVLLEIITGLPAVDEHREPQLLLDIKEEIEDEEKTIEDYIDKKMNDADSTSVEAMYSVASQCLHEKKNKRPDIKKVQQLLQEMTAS
How it was run: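 Degradation read-out: luminescence from lytic HiBiT detection (15 min, room temperature) after 24 h compound exposure (37 °C, 5% CO2) of HEK293T cells transiently expressing IRAK4 fused to a HiBiT tag. Data fitted to a bell-shaped four-parameter model giving two EC50 values.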

IRAK4 [2] = target: T1, IRAK4; assay: WB detection of proteolysis (Western Blot, THP-1 cells); type: cell-based
How it was run: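 IRAK4 level in RIPA lysates read by Western blot with Odyssey imaging; values from bell-shaped non-linear fit with two four-parameter sections (Plateau1, Plateau2, Dip, LogEC50_1/2, nH1/2).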

[3] = Western Blot, THP-1 cells, 24 h, read-out: DC50
[4] = Western Blot, THP-1 cells, 24 h, read-out: Dmax

SMILES | Dmax (IRAK4 [1]) | DC50 (IRAK4 [1]) | DC50 (IRAK4 [2]; [3]) | Dmax (IRAK4 [2]; [4]) | Dmax (IRAK4 [2]; THP-1) | DC50 (IRAK4 [2]; Western Blot, THP-1 cells, 24 h) | DC50 (IRAK4 [1]; read-out: DC50)
Cn1c(=O)n(C2CCC(=O)NC2=O)c2cccc(C3CCN(C[C@H]4CC[C@H](n5cc(-n6cc(-c7ccc8cc(C(N)=O)cnn78)nn6)c(C(F)F)n5)CC4)CC3)c21 (stereo partly drawn) [Example 84, 7-(1-(3-(difluoromethyl)-1-((1r,4r)-4-((4-(1-(2,6-dioxopiperidin-3-yl)-3-methyl-2-oxo-2,3-dihydro-1H-benzo[d]imidazol-4-yl)piperidin-1-yl)methyl)cyclohexyl)-1H-pyrazol-4-yl)-1H-1,2,3-triazol-4-yl)pyrrolo[1,2-b]pyridazine-3-carboxamide] | > 80% | < 0.0005 µM | < 0.01 µM | < 60% | – | – | –
Cn1c(=O)n(C2CCC(=O)NC2=O)c2cccc(N3CC4(CCN(C[C@H]5CC[C@H](n6cc(-n7cc(-c8ccc9cc(C(N)=O)cnn89)nn7)c(C(F)F)n6)CC5)CC4)C3)c21 (stereo partly drawn) [Example 35] | > 80% | < 0.0005 µM | < 0.01 µM | 60 to 70% | – | – | –
Cn1c(=O)n(C2CCC(=O)NC2=O)c2cccc(N[C@H]3CC[C@H](N(C)C[C@H]4CC[C@H](n5cc(-n6cc(-c7cnn8ccc(N9CCOCC9)nc78)nn6)c(C(F)F)n5)CC4)CC3)c21 (stereo partly drawn) [Example 55, 3-(4-(((1R,4r)-4-((((1r,4R)-4-(3-(difluoromethyl)-4-(4-(5-morpholinopyrazolo[1,5-a]pyrimidin-3-yl)-1H-1,2,3-triazol-1-yl)-1H-pyrazol-1-yl)cyclohexyl)methyl)(methyl)amino)cyclohexyl)amino)-3-methyl-2-oxo-2,3-dihydro-1H-benzo[d]imidazol-1-yl)piperidine-2,6-dione] | > 80% | < 0.0005 µM | – | – | < 60% | < 0.01 µM | –
Cn1c(=O)n(C2CCC(=O)NC2=O)c2cccc(N3CCN(C[C@H]4CC[C@H](n5cc(-n6cc(-c7cnn8ccc(N9CCC[C@H](O)C9)nc78)nn6)c(C(F)F)n5)CC4)CC3)c21 (stereo partly drawn) [Example 141] | > 80% | < 0.0005 µM | < 0.01 µM | > 70% | – | – | –
Cn1c(=O)n(C2CCC(=O)NC2=O)c2cccc(N3CCC4(CCN(C[C@H]5CC[C@H](n6cc(-n7cc(-c8cnn9ccc(N%10CCC[C@H](N)C%10)nc89)nn7)c(C(F)F)n6)CC5)CC4)C3)c21 (stereo partly drawn) [Example 116] | > 80% | 0.0005 to 0.001 µM | 0.01 to 0.03 µM | 60 to 70% | – | – | –
Cn1c(=O)n(C2CCC(=O)NC2=O)c2cccc(N3CCC4(CCN(C[C@H]5CC[C@H](n6cc(-n7cc(-c8cnn9ccc(N%10CCC(C)(O)CC%10)nc89)nn7)c(C(F)F)n6)CC5)CC4)C3)c21 (stereo partly drawn) [Example 123] | > 80% | < 0.0005 µM | < 0.01 µM | < 60% | – | – | –
Cn1c(=O)n(C2CCC(=O)NC2=O)c2cccc(N3CCC4(CCN(C[C@H]5CC[C@H](n6cc(-n7cc(-c8cnn9ccc(N%10CCC[C@H](O)C%10)nc89)nn7)c(C(F)F)n6)CC5)C4)CC3)c21 (stereo partly drawn) [Example 145] | > 80% | < 0.0005 µM | < 0.01 µM | > 70% | – | – | –
Cn1c(=O)n(C2CCC(=O)NC2=O)c2cccc(N3CCC(N4CCN(C[C@H]5CC[C@H](n6cc(-n7cc(-c8cnn9ccc(N%10CCOCC%10)nc89)nn7)c(C(F)F)n6)CC5)CC4)CC3)c21 (stereo partly drawn) [Example 34] | > 80% | < 0.0005 µM | < 0.01 µM | 60 to 70% | – | – | –
Cn1c(=O)n(C2CCC(=O)NC2=O)c2cccc(N3CCC4(CCN(C[C@H]5CC[C@H](n6cc(-n7cc(-c8cnn9ccc(N%10CCC(O)CC%10)nc89)nn7)c(C(F)F)n6)CC5)C4)CC3)c21 (stereo partly drawn) [Example 139] | > 80% | < 0.0005 µM | < 0.01 µM | > 70% | – | – | –
Cn1c(=O)n(C2CCC(=O)NC2=O)c2cccc(N3CCN(C4CCN(C[C@H]5CC[C@H](n6cc(-n7cc(-c8cnn9ccc(N%10CCC[C@@H](O)C%10)nc89)nn7)c(C(F)F)n6)CC5)CC4)CC3)c21 (stereo partly drawn) [Example 245] | > 80% | < 0.0005 µM | < 0.01 µM | > 70% | – | – | –
Cn1c(=O)n(C2CCC(=O)NC2=O)c2cccc(N3CCC4(CCN(C[C@H]5CC[C@H](n6cc(-n7cc(-c8cnn9ccc(N[C@@H]%10CCCC[C@@H]%10O)nc89)nn7)c(C(F)F)n6)CC5)C4)CC3)c21 (stereo partly drawn) [Example 154] | > 80% | < 0.0005 µM | < 0.01 µM | > 70% | – | – | –
Cn1c(=O)n(C2CCC(=O)NC2=O)c2cccc(N[C@H]3CC[C@H](N(C)C[C@H]4CC[C@H](n5cc(-n6cc(-c7cnn8ccc(N9CCC[C@H](N)C9)nc78)nn6)c(C(F)F)n5)CC4)CC3)c21 (stereo partly drawn) [Example 118] | > 80% | < 0.0005 µM | 0.01 to 0.03 µM | > 70% | – | – | –
Cn1c(=O)n(C2CCC(=O)NC2=O)c2cccc(N3CCC4(CCN(C[C@H]5CC[C@H](n6cc(-n7cc(-n8ccc9cc(C(N)=O)cnc98)nn7)c(C(F)F)n6)CC5)CC4)C3)c21 (stereo partly drawn) [Example 103, 1-(1-(3-(difluoromethyl)-1-((1r,4r)-4-(2-(1-(2,6-dioxopiperidin-3-yl)-3-methyl-2-oxo-2,3-dihydro-1H-benzo[d]imidazol-4-yl)-2,8-diazaspiro[4.5]dec-8-yl)methyl)cyclohexyl)-1H-pyrazol-4-yl)-1H-1,2,3-triazol-4-yl] | > 80% | < 0.0005 µM | < 0.01 µM | < 60% | – | – | –
C[C@H]1CN(c2ccn3ncc(-c4cn(-c5cn([C@H]6CC[C@H](CN7CCC8(CC7)CN(c7cccc9c7n(C)c(=O)n9C7CCC(=O)NC7=O)C8)CC6)nc5C(F)F)nn4)c3n2)CCO1 (stereo partly drawn) [Compound 178] | > 80% | – | < 0.01 µM | > 70% | – | – | < 0.0005 µM
Cn1c(=O)n(C2CCC(=O)NC2=O)c2cccc(N3CCC4(CCN(C[C@H]5CC[C@H](n6cc(-n7cc(-n8ccc9cc(C(N)=O)cnc98)nn7)c(C(F)F)n6)CC5)CC4)CC3)c21 (stereo partly drawn) [Example 99] | > 80% | < 0.0005 µM | 0.01 to 0.03 µM | < 60% | – | – | –
Cn1c(=O)n(C2CCC(=O)NC2=O)c2cccc(N3CCC4(CCN(C[C@H]5CC[C@H](n6cc(-n7cc(-c8cnn9ccc(N%10CCOCC%10)nc89)nn7)c(C(F)F)n6)CC5)CC4)CC3)c21 (stereo partly drawn) [Example 36] | > 80% | < 0.0005 µM | < 0.01 µM | 60 to 70% | – | – | –
Cn1c(=O)n(C2CCC(=O)NC2=O)c2cccc(N3CCC(N4CCN(C[C@H]5CC[C@H](n6cc(-n7cc(-c8cnn9ccc(N%10CCNCC%10)nc89)nn7)c(C(F)F)n6)CC5)CC4)CC3)c21 (stereo partly drawn) [Example 127, 3-(4-(4-(4-(((1r,4r)-4-(3-(difluoromethyl)-4-(4-(5-(piperazin-1-yl))pyrazolo[1,5-a]pyrimidin-3-yl)-1H-1,2,3-triazol-1-yl)-1H-pyrazol-1-yl)cyclohexyl)methyl)piperazin-1-yl)piperidin-1-yl)-3-methyl-2-oxo-2,3-dihydro-1H-benzo[d]imidazol-1-yl)piperidine-2,6-dione dihydrochloride] | > 80% | < 0.0005 µM | 0.01 to 0.03 µM | > 70% | – | – | –
C[C@H]1CN(c2cccc3c2n(C)c(=O)n3C2CCC(=O)NC2=O)CCN1C[C@H]1CC[C@H](n2cc(-n3cc(-c4ccc5cc(C(N)=O)cnn45)nn3)c(C(F)F)n2)CC1 (stereo partly drawn) [Example 96] | > 80% | < 0.0005 µM | < 0.01 µM | > 70% | – | – | –
